Values after ≈ are worked out from the molar mass of the structure shown. Read-outs that look alike come from different tables or passages of the source.
Experiments:
[1] = test system: Microsporum gypseum (14683); assay: Broth dilution assay, F12; format: cell-based; details: Nannizzia gypsea
Protocol: (§1) Both broth dilution and agar dilution assays were used to assess the antifungal activity of the compounds of the invention. The cultures were maintained in Sabouraud dextrose broth (SDB) and diluted with […]. 2.5 l of SDB was prepared and distributed into sterile vessels as follows: 49 ml into 1 vessel, 27 ml into 3 vessels, 45 ml into 2 vessels.
(§2) Five mg/ml concentration of each compound was prepared using DMSO as the solvent; warming and sonication were necessary to dissolve each compound completely. The compounds were then diluted in SDB according to the following protocol:
(§3) 5. 1 ug/ml--5 ml (3)+45 ml SDB
(§4) The compound at each concentration in SDB was then dispensed into 6 tubes each containing 4 ml […]. Controls (without any compound) were also prepared to insure that the solvent itself was not fungicidal or fungistatic.
(§5) Cultures were grown in SDB for 24 h at 30° C. C. albicans and C. neoformans were diluted 1:10 in SDB before inoculation. Inoculation volume for yeasts was 2 drops of diluted cells per tube. The fungal cultures were homogenized before inoculation. The same volume was added, but without dilution. All tubes were incubated at room temperature on a rotating wheel. After 16 h of incubation at room temperature, the fungistatic assay was set up on agar plates. […] Yeasts were inoculated onto SDA (the corresponding agar) plates and fungi onto mycosel agar plates. These plates were then incubated at room temperature.

[2] = test system: Penicillium citrinum (9849); assay: Broth dilution assay, F19; format: cell-based; details: for MIC: Table 1, F19, Sabouraud Dextrose Broth pH 5.5, read-out: Minimum Inhibitory Concentration (S, fungistatic)
Protocol: as §1, §2, §3, §4, §5

[3] = test system: Candida albicans (14053); assay: Broth dilution assay, F2; format: cell-based
Protocol: as §1, §2, §3, §4, §5

[4] = test system: Cryptococcus neoformans (13690); assay: Broth dilution assay, F3; format: cell-based
Protocol: as §1, §2, §3, §4, §5

[5] = test system: Candida albicans (10231); assay: Broth dilution assay, F1; format: cell-based
Protocol: as §1, §2, §3, §4, §5

[6] = test system: Epidermophyton floccosum (15693); assay: Broth dilution assay, F4; format: cell-based
Protocol: as §1, §2, §3, §4, §5

[7] = test system: Trichophyton mentagrophytes (11481); assay: Broth dilution assay, F6; format: cell-based
Protocol: as §1, §2, §3, §4, §5

[8] = test system: Candida species; details: with SMX, against Candida; Castaldo 1979; cited from earlier work
[9] = test system: Candida; assay: Growth of Candida cultures with compound and/or SMX (FIG. 1); format: cell-based; details: SMX alone (100 ug)
[10] = Table 1, Sabouraud Dextrose Broth pH 5.5, read-out: Minimum Inhibitory Concentration (S, fungistatic)
[11] = Table 2, Sabouraud Dextrose Broth pH 5.5, read-out: C Fungicidal
[12] = Table 2, Sabouraud Dextrose Broth pH 5.5, read-out: S Fungistatic
[13] = pH 5.5, read-out: Minimum Lethal Concentration (C, fungicidal)
[14] = pH 5.5, read-out: Minimum Inhibitory Concentration (S, fungistatic)
[15] = pH 5.5, read-out: S Fungistatic
[16] = Table 1, F4, Sabouraud Dextrose Broth pH 5.5, read-out: Minimum Inhibitory Concentration (S, fungistatic)
[17] = Table 2, F4, Sabouraud Dextrose Broth pH 5.5, read-out: C Fungicidal
[18] = Table 2, F4, Sabouraud Dextrose Broth pH 5.5, read-out: S Fungistatic
[19] = Table 1, F6, Sabouraud Dextrose Broth pH 5.5, read-out: Minimum Inhibitory Concentration (S, fungistatic)
[20] = Table 2, F6, Sabouraud Dextrose Broth pH 5.5, read-out: C Fungicidal
[21] = Table 2, F6, Sabouraud Dextrose Broth pH 5.5, read-out: S Fungistatic
[22] = Table 2, F3, Sabouraud Dextrose Broth pH 5.5, read-out: C Fungicidal
[23] = Table 2, F3, Sabouraud Dextrose Broth pH 5.5, read-out: S Fungistatic
[24] = Table 2, F1, Sabouraud Dextrose Broth pH 5.5, read-out: C Fungicidal
[25] = Table 2, F1, Sabouraud Dextrose Broth pH 5.5, read-out: S Fungistatic

SMILES | MFC [1, 11] | MIC [1, 12] | MFC [6, 17] | MIC [6, 18] | MFC [7, 20] | MIC [7, 21] | MFC [4, 22] | MIC [4, 23] | MFC [5, 24] | MIC [5, 25] | further results
Clc1ccc(COC(Cn2ccnc2)c2ccc(Cl)cc2Cl)c(Cl)c1 (stereo not drawn) [Miconazole, reference compound] | 30 µg/mL (≈ 72.1 µM) | 1 µg/mL (≈ 2.4 µM) | ≤ 0.3 µg/mL | ≤ 0.3 µg/mL | 10 µg/mL (≈ 24 µM) | ≤ 0.3 µg/mL | – | – | – | – | MIC [1, 10]: 3 µg/mL (≈ 7.21 µM); MIC [2]: ≤ 0.1 µg/mL; MFC [2, 13]: 30 µg/mL (≈ 72.1 µM); MIC [3, 14]: 30 µg/mL (≈ 72.1 µM); MFC [3, 13]: 30 µg/mL (≈ 72.1 µM); MFC ([4]; pH 5.5, read-out: C Fungicidal): 10 µg/mL (≈ 24 µM); MIC [4, 14]: ≤ 0.1 µg/mL; MFC [4, 13]: 10 µg/mL (≈ 24 µM); MIC [4, 15]: ≤ 0.3 µg/mL; MFC ([5]; pH 5.5, read-out: C Fungicidal): 100 µg/mL (≈ 240 µM); MIC [5, 14]: 10 µg/mL (≈ 24 µM); MFC [5, 13]: 30 µg/mL (≈ 72.1 µM); MIC [5, 15]: 10 µg/mL (≈ 24 µM); MIC [6, 16]: ≤ 0.1 µg/mL; MFC [6, 13]: 1 µg/mL (≈ 2.4 µM); MIC [7, 19]: 1 µg/mL (≈ 2.4 µM); MFC [7, 13]: 30 µg/mL (≈ 72.1 µM)
Nc1nc(N)c2c(ccc3c2ccn3CC2CC2)n1 [N-cyclopropylmethyl-5,6-pyrrolo-2,4-diaminoquinazoline] | – | – | – | – | – | – | – | – | – | – | synergistic activity in presence of sulfamethoxazole (SMX) [8]: synergistic activity
CCCCCCCc1ccc2nc(N)nc(N)c2c1C [R^1 = CH3 R^2 = --CH2 (CH2)5 CH3, 2,4-Diamino-5-methyl-6-n-heptylquinazoline] | 100 µg/mL (≈ 367 µM) | 30 µg/mL (≈ 110 µM) | 30 µg/mL (≈ 110 µM) | 10 µg/mL (≈ 36.7 µM) | 30 µg/mL (≈ 110 µM) | 30 µg/mL (≈ 110 µM) | 10 µg/mL (≈ 36.7 µM) | 3 µg/mL (≈ 11 µM) | > 100 µg/mL | 30 µg/mL (≈ 110 µM) | –
CCCCCCCCCCc1ccc2nc(N)nc(N)c2c1C [R^1 = CH3 R^2 = --CH2 (CH2)8 CH3, 2,4-Diamino-5-methyl-6-n-decylquinazoline] | > 100 µg/mL | 100 µg/mL (≈ 318 µM) | – | – | 30 µg/mL (≈ 95.4 µM) | > 100 µg/mL | 30 µg/mL (≈ 95.4 µM) | 3 µg/mL (≈ 9.54 µM) | > 100 µg/mL | 30 µg/mL (≈ 95.4 µM) | –
Cc1c(CCc2ccccc2)ccc2nc(N)nc(N)c12 [R^1 = CH3 R^2 = --CH2 (CH2)C6 H5, 2,4-Diamino-5-methyl-6-phenethylquinazline] | > 100 µg/mL | 100 µg/mL (≈ 359 µM) | 100 µg/mL (≈ 359 µM) | 30 µg/mL (≈ 108 µM) | 30 µg/mL (≈ 108 µM) | 30 µg/mL (≈ 108 µM) | 30 µg/mL (≈ 108 µM) | 10 µg/mL (≈ 35.9 µM) | > 100 µg/mL | 100 µg/mL (≈ 359 µM) | –
CCCCCCCCCc1ccc2nc(N)nc(N)c2c1 [R^1 = H R^2 = CH2 (CH2)7 CH3] | > 100 µg/mL | 100 µg/mL (≈ 349 µM) | ≤ 0.3 µg/mL | 30 µg/mL (≈ 105 µM) | > 100 µg/mL | > 100 µg/mL | > 30 µg/mL | 3 µg/mL (≈ 10.5 µM) | > 100 µg/mL | 100 µg/mL (≈ 349 µM) | –
Cc1cc(NS(=O)(=O)c2ccc(N)cc2)no1 [SMX, sulfamethoxazole, reference compound] | – | – | – | – | – | – | – | – | – | – | cfu/ml over a 36-h period [9]: approximately 10^8 cfu/ml
Cc1cccc(N(C)C(=S)Oc2ccc3ccccc3c2)c1 [Tolnaftate, reference compound] | 30 µg/mL (≈ 97.6 µM) | ≤ 0.3 µg/mL | ≤ 0.3 µg/mL | ≤ 0.3 µg/mL | > 100 µg/mL | ≤ 0.3 µg/mL | > 100 µg/mL | > 100 µg/mL | > 100 µg/mL | > 100 µg/mL | MIC [1, 10]: ≤ 0.1 µg/mL; MFC ([1]; Table 1, Sabouraud Dextrose Broth pH 5.5, read-out: Minimum Lethal Concentration (C, fungicidal)): 10 µg/mL (≈ 32.5 µM); MIC [2]: ≤ 0.3 µg/mL; MFC ([2]; Table 1, F19, Sabouraud Dextrose Broth pH 5.5, read-out: Minimum Lethal Concentration (C, fungicidal)): 30 µg/mL (≈ 97.6 µM); MIC ([3]; Table 1, F2, Sabouraud Dextrose Broth pH 5.5, read-out: Minimum Inhibitory Concentration (S, fungistatic)): > 100 µg/mL; MFC ([3]; Table 1, F2, Sabouraud Dextrose Broth pH 5.5, read-out: Minimum Lethal Concentration (C, fungicidal)): > 100 µg/mL; MIC ([4]; Table 1, F3, Sabouraud Dextrose Broth pH 5.5, read-out: Minimum Inhibitory Concentration (S, fungistatic)): > 100 µg/mL; MFC ([4]; Table 1, F3, Sabouraud Dextrose Broth pH 5.5, read-out: Minimum Lethal Concentration (C, fungicidal)): > 100 µg/mL; MIC ([5]; Table 1, F1, Sabouraud Dextrose Broth pH 5.5, read-out: Minimum Inhibitory Concentration (S, fungistatic)): > 100 µg/mL; MFC ([5]; Table 1, F1, Sabouraud Dextrose Broth pH 5.5, read-out: Minimum Lethal Concentration (C, fungicidal)): > 100 µg/mL; MIC [6, 16]: ≤ 0.1 µg/mL; MFC ([6]; Table 1, F4, Sabouraud Dextrose Broth pH 5.5, read-out: Minimum Lethal Concentration (C, fungicidal)): 10 µg/mL (≈ 32.5 µM); MIC [7, 19]: ≤ 0.1 µg/mL; MFC ([7]; Table 1, F6, Sabouraud Dextrose Broth pH 5.5, read-out: Minimum Lethal Concentration (C, fungicidal)): 3 µg/mL (≈ 9.76 µM)
